Patent US20170008928A1, “NOVEL PEPTIDES AND PEPTIDE DERIVATIVES AND USES THEREOF” (Novo Nordisk A/S, priority 2015, published 2017)
Like-named read-outs stand apart in the source and are kept apart here. Starred links: 1 amine or outer side, 2 acyl side, 3 side chain; linkers in the order of their positions; H or OH if unused. Non-standard residues stand in square brackets, D forms with d. Residues, ends and D or L forms follow the SMILES beside them. *: point of attachment. Phe(4-CH2SO3H) = N[C@@H](Cc1ccc(CS(=O)(=O)O)cc1)C(=O)O; C18 diacid = O=C(O)CCCCCCCCCCCCCCCCC(=O)*; γGlu = O=C(O)[C@H](CCC(=O)[*:2])N[*:1]; NMeF = CN[C@@H](Cc1ccccc1)C(=O)O; dNMeD = CN[C@H](CC(=O)O)C(=O)O; Nle = CCCC[C@H](N)C(=O)O; AEEA = NCCOCCOCC(=O)O

Columns and labels:
[1] = Plasma exposure after the last dose in DIO mini-pigs; type: in vivo, Göttingen mini-pigs; conditions: for AUC(0-t): Göttingen, minipig, plasma, sc, read-out: AUCexposure (0-24 h) after last dose
Experimental: The CCK derivative was dissolved in the following buffer: 8 mM phosphate, 184 mM propylene glycol, 58 mM phenol, pH 7.4 concentrations ranging from 2000-10000 nmol/mL corresponding to dose volumes ranging from 0.00075-0.001 mL/kg. Liraglutide was dissolved in 8 mM phosphate, 184 mM propylenglycol, 58 mM phenol, pH 8.15 (1600 nmol/mL), dose volume was 0.001 mL/kg and this formulation also served as a vehicle for all 3 treatment groups. Animals were dosed subcutaneously once daily with vehicle, CCK derivative, liraglutide, or liraglutide in combination with the CCK derivative (given as two separate injections in each side of the neck). After the last dose blood samples were obtained in EDTA coated tubes at selected time points for up to 480 hours after dosing. Blood was sampled through central-venous catheters implanted under general anaesthesia after 11 weeks of treatment.
The resulting plasma was pipetted into Micronic tubes on dry ice, and kept at −20° C. until analysed for plasma exposure of liraglutide and the CCK derivative. Plasma content of the CCK derivative was measured using LC-MS method II, as described in Example 93. Plasma content of liraglutide was measured using LOCI (Luminescence Oxygen Channeling Immunoasssay). LOCI is generally described for the determination of insulin by Poulsen and Jensen in Journal of Biomolecular Screening 2007, vol. 12, p. 240-247. The donor beads were coated with streptavidin, while acceptor beads were conjugated with a monoclonal antibody recognising a C-terminal epitope of the peptide. Another monoclonal antibody, specific for the N-terminus, was biotinylated. The three reactants were combined with the analyte and formed a two-sited immuno-complex. Illumination of the complex released singlet oxygen atoms from the donor beads, which were channelled into the acceptor beads and triggered chemiluminescence which was measured in an Envision plate reader. The amount of light was proportional to the concentration of the compound.

[2] = Chemical stability in 50 mM phosphate buffer pH 7.4, RP-UPLC; type: physicochemical
Experimental: The purpose of this assay is to assess the chemical stability of the derivatives of the invention in aqueous solutions. The chemical stability was investigated by RP-UPLC separation and UV detection.
Lyophilised samples of the derivative of Example 3 were dissolved in a 50 mM sodium phosphate buffer pH 7.4 containing 70 mM NaCl and 0.05 v/v % polysorbate 80, at a concentration of 1 mg/ml of the derivative (for the Example 3 derivative 1 mg/ml equates 0.54 mM). If necessary, pH was adjusted to 7.4. […]
RP-UPLC analysis was performed using a Waters Acquity system with the following parameters:
The following UPLC gradient was used: […]
Purity of a compound is defined as the area percentage of the compound peak in relation to the total area of all integrated peaks in the chromatogram and is calculated by the software of the apparatus. Absolute purity loss (in percentage points, pp) is determined as the difference in purity between the start sample and the sample incubated for a certain time at a certain temperature. Relative purity loss (in %) is the ratio of absolute purity loss to the purity determined in the start sample.

**Q.** With `CCCC[C@H](NC(=O)[C@H](Cc1ccc(CS(=O)(=O)O)cc1)NC(=O)[C@H](CC(=O)O)NC(=O)COCCOCCNC(=O)COCCOCCNC(=O)CC[C@H](NC(=O)CCCCCCCCCCCCCCCCC(=O)O)C(=O)O)C(=O)NCC(=O)N[C@@H](Cc1c[nH]c2ccccc12)C(=O)N[C@@H](CCCC)C(=O)N(C)[C@H](CC(=O)O)C(=O)N(C)[C@@H](Cc1ccccc1)C(N)=O` [Example 3, 2-[2-[2-[[2-[2-[2-[[(4S)-4-Carboxy-4-(17-carboxyheptadecanoylamino)butanoyl]amino]ethoxy]ethoxy]acetyl]amino]ethoxy]ethoxy]acetyl-Asp-Phe(4-sulfomethyl)-Nle-Gly-Trp-Nle-DMeAsp-MePhe-amide] ({C18 diacid-γGlu-AEEA-AEEA}-D[Phe(4-CH2SO3H)][Nle]GW[Nle][dNMeD][NMeF]-NH2) as the compound, how does the AUC(0-t) ([1]; CCK derivative high dose group (10 nmol/kg)) read?
**A.** 27.1 µM·h

**Q.** What about the AUC(0-t) ([1]; CCK derivative low dose group) of the same compound?
**A.** 4.2 µM·h

**Q.** And the “AUCexposure (0-24 h) after last dose, CCK derivative” value ([1]; combination group, CCK derivative […] on top of liraglutide)?
**A.** derivative: 3332000 pM*h

**Q.** And the “chemical stability, overall” value ([2]; all three temperatures tested (5, 25, 37° C.), up to at least 6 weeks)?
**A.** very stable

**Q.** What about the “short term chemical stability” value ([2]; same buffer, 25° C., three days, 25 μM, 100 μM and 500 μM) of the same compound?
**A.** virtually no degradation
